# According to patent publication US20140243239A1, “MULTIPLEXED KINASE INHIBITOR BEADS AND USES THEREOF” (University of North Carolina at Chapel Hill, priority 2011, published 2014):
# Experiments:
# [1] = system: PDX P100422; assay: Tumor growth of pancreatic cancer PDX P100422; assay type: in vivo, mice
# Description: (§1) Kinome reprogramming in PDX models: De-identified tumors from patients are grafted into immunecompromised mice and passaged. All tumors are characterized using microarray and mutational analysis. Hematoxylin & eosin staining of a patient tumor at the time of operation and after several passages over a 1.5 yr period showing similar glandular architecture with surrounding stroma. Variable levels of pERK1/2 and pAKT(S473) was seen across pancreatic cancer PDX. PDX P100422 with moderate levels of pAKT was selected for BKM120 treatment. pAKT expression in BKM120 versus vehicle treated PDX tumor. Mice were treated daily with either vehicle control (n=3) or BKM120 (n=3) and tumors were harvested 4-6 h after the last dose. PDX tumors were treated daily for 28 days. […] The 3 vehicle control and 3 BKM120 treated tumors showing inhibition of pAKT were analyzed using MIB/MS. Activation and repression of the kinome in response to PI3K inhibition in PDX P100422.
# [2] = system: AKT; assay: AKT phosphorylation in pancreatic cancer PDX tumors; assay type: in vivo, mice; details: daily treatment, harvested 4-6 h after last dose
# Procedure: as §1, with “Kinome reprogramming in PDX model of pancreatic cancer after BKM120 treatment: The kinome response of a pancreatic cancer PDX to BKM120 treatment was evaluated using MIB/MS. […] Kinome” for “Kinome”
# [3] = system: MEK; details: Gilmartin et al. 2011; cited from earlier work
# [4] = system: MEK-ERK pathway; assay: Window trial in TNBC patients (LCCC 1122), MIB/MS of tumor biopsies; assay type: in vivo, human; details: 7-day post-treatment versus pre-treatment biopsy, preliminary
# Description: Kinome reprogramming in TNBC patients treated with the MEK inhibitor GSK1120212 is being evaluated (LCCC 1122).
# [5] = system: MEK1; assay: MEK1 activation in HPAC pancreatic cancer cells; assay type: cell-based
# Procedure: Kinome reprogramming in pancreatic cancer—cell type and inhibitor specific. The kinome response to drug in 3 pancreatic cancer cell lines (HPAC, AsPC-1, HPAF-II) was also evaluated using 3 kinase inhibitors that are currently in Phase I/II clinical trials: BKM120 (Novartis), an oral pan-class 1 PI3K inhibitor, […] (Glaxo Smith-Kline), an ATP competitive PI3K/mTOR inhibitor, and GSK1120212, a reversible allosteric inhibitor of MEK1/2 (Glaxo Smith-Kline). The kinome response for GSK2126458 and GSK1120212 was compared using MIB/MS and RTK arrays to determine if kinome reprogramming was inhibitor-specific. […] Thus, kinome reprogramming is target-specific.
# [6] = system: BT474 cells; assay: BT474 luminescent cell viability assay; assay type: cell-based; details: 50 nM lapatinib, 0-72 hours
# Procedure: The different colors represent different time points of (50 nM) lapatinib treatment relative to DMSO control-treated cells. From light to dark, the time points are 4, 24, and 48 hrs of lapatinib treatment.
smiles,measurement,setting,value
Nc1cc(C(F)(F)F)c(-c2cc(N3CCOCC3)nc(N3CCOCC3)n2)cn1 [BKM120],effectiveness in the PDX model,[1]; small sample size,not clearly effective
same,number of tumors showing tumor growth inhibition relative to controls,[1]; treated daily for 28 days,4 tumors
same,AKT phosphorylation,[2],inhibited AKT phosphorylation
CC(=O)Nc1cccc(-n2c(=O)n(C3CC3)c(=O)c3c(Nc4ccc(I)cc4F)n(C)c(=O)c(C)c32)c1 [GSK1120212],fold lower affinity of MEK phosphorylated at the activation loop serines than nonphosphorylated MEK,[3],20 fold
same,MEK-ERK pathway in patient tumors,[4],effectively inhibited
same,kinome reprogramming in patient tumors,[4],"upregulation of MRCKG, FER and DDR1"
same,MEK1 activation,[5],inhibited MEK1 activation
CS(=O)(=O)CCNCc1ccc(-c2ccc3ncnc(Nc4ccc(OCc5cccc(F)c5)c(Cl)c4)c3c2)o1 [lapatinib],growth of BT474 cells,[6],growth inhibition
